Reference: patent publication US20250325547A1, “ANTI-SARS-COV-2 DRUG” (KAGOSHIMA UNIVERSITY, priority 2021, published 2025)
Read-outs that look alike come from different tables or passages of the source.

How the values were obtained:
SARS-CoV-2 [1] = test: Anti-SARS-CoV-2 RNA assay in VeroE6/TMPRSS2 cells; type: cell-based; settings: Table 5, VeroE6/TMPRSS2 (RNA)
SARS-CoV-2 (WK-521) = test: microbe, parasite or virus in culture; type: cell-based
[2] = system: SARS-CoV-2 (WK-521 strain); settings: for EC50: HEK293T/ACE2 (RNA), WK-521, MOI 0.1, 3 days
SARS-CoV-2 [3] = test: Anti-SARS-CoV-2 RNA assay in Vero cells; type: cell-based; settings: Table 5, Vero (RNA)
in vitro [4] = settings: African green monkey
in vitro [5] = settings: human
[6] = system: SARS-CoV-2 (WK-521 strain); test: microbe, parasite or virus in culture; settings: Severe acute respiratory syndrome coronavirus 2, HEK-293T, 72 h
[7] = read-out: EC50 (50% effective concentration, inhibits cell death induced by SARS-CoV-2 infection by 50%)
[8] = Table 5, HEK293T/ACE2, lower row
[9] = read-out: CC50 (50% toxicity concentration, reduces the number of viable cells in non-infected cells by 50%), non-infected VeroE6/TMPRSS2 cells, 3 days, Tables 1-4
[10] = read-out: EC50 (50% effective concentration, inhibits cell death induced by SARS-CoV-2 infection by 50%), VeroE6/TMPRSS2 cells, SARS-CoV-2 WK-521, MOI 0.01, 3 days, Tables 1-4
[11] = Severe acute respiratory syndrome coronavirus 2, 72 h, read-out: EC50 (50% effective concentration, inhibits cell death induced by SARS-CoV-2 infection by 50%), VeroE6/TMPRSS2 cells, SARS-CoV-2 WK-521, MOI 0.01, 3 days, Tables 1-4
[12] = Severe acute respiratory syndrome coronavirus 2

Row | SMILES | CC50 at 3 days (in vitro [4]) [µM] | EC50 (SARS-CoV-2 (WK-521); [11]) [µM] | also measured
1 | CCN(Cc1cc(Nc2ncnc3ccccc23)cc(Cl)c1O)C(C)C [Compound 11] |  |  | EC50 (SARS-CoV-2 [1]): 1900 nM; EC50 (SARS-CoV-2 (WK-521); [7]): 7.6 µM; CC50 (HEK293T/ACE2 cells; [8]): 85.4 µM; EC50 [2]: 120 nM; CC50 (VeroE6/TMPRSS2 cells; Table 5, VeroE6/TMPRSS2 (CPE)): > 100 µM; CC50 (VeroE6/TMPRSS2 cells; [9]): > 100 µM; EC50 (SARS-CoV-2 [3]): 5500 nM
2 | CN1CCN(Cc2cc(Nc3ncnc4ccccc34)cc(I)c2O)CC1 [Compound 10] |  |  | EC50 (SARS-CoV-2 (WK-521); [10]): 15.5 µM; CC50 (VeroE6/TMPRSS2 cells; [9]): > 100 µM
3 | CC(C)N(Cc1cc(Nc2ncnc3ccccc23)ccc1O)c1ccc(Cl)cc1 [Compound 27] | > 100 | 13.9 | 
4 | CCN(Cc1cc(Nc2ncnc3ccccc23)cc(Cl)c1O)c1ccc(F)c(Cl)c1 [Compound 30] | > 100 | 10.8 | 
5 | CCN(CC)Cc1cc(Nc2ncnc3cc(OC)c(OC)cc23)cc(I)c1O [Compound 5] | > 100 | 31.6 | 
6 | CCNCc1cc(Nc2ncnc3ccccc23)cc(I)c1O [Compound 13] | > 100 | 44.7 | 
7 | CC(C)N(Cc1cc(Nc2ncnc3ccccc23)cc(Cl)c1O[C@H]1O[C@@H](C)[C@@H](O)[C@@H](O)[C@@H]1O)C(C)C [Compound 34] | > 100 | 60.2 | 
8 | CCN(CC)Cc1cc(Nc2nc(N(C)C)nc3ccccc23)cc(I)c1O [Compound 6] | 49.9 | 12.9 | 
9 | CCCN(Cc1cc(Nc2ncnc3ccccc23)cc(Cl)c1O)C(C)C [Compound 21] | > 100 | 11.7 | 
10 | CC(C)N(Cc1cc(Nc2ncnc3ccccc23)cc(I)c1O)C(C)C [Compound 16] |  |  | EC50 (SARS-CoV-2 (WK-521); [10]): 44.6 µM; CC50 (VeroE6/TMPRSS2 cells; [9]): > 100 µM
11 | C[C@H]1C[C@H](C)CN(Cc2cc(Nc3ncnc4ccccc34)cc(Cl)c2O)C1 [Compound 31] | 37.5 | 19.4 | 
12 | CC(C)N(Cc1cc(Nc2ncnc3ccccc23)cc(Cl)c1O)C(C)(C)C [Compound 22] | > 100 | 10.8 | 
13 | CCN(C)Cc1cc(Nc2ncnc3ccccc23)cc(I)c1O [Compound 8] |  |  | EC50 (SARS-CoV-2 (WK-521); [10]): 57.6 µM; CC50 (VeroE6/TMPRSS2 cells; [9]): > 100 µM
14 | CCN(CC)Cc1cc(Nc2ncnc3ccccc23)cc(I)c1O [Compound 4] | > 100 | 16.9 | 
15 | CC(C)N(Cc1cc(Nc2ncnc3ccccc23)cc(Cl)c1O)C(C)C [Compound 15] |  |  | EC50 (SARS-CoV-2 [1]): 1900 nM; EC50 (SARS-CoV-2 (WK-521); [7]): 3.3 µM; CC50 (HEK293T/ACE2 cells; [8]): > 100 µM; CC50 (HEK293T/ACE2 cells; read-out: 50% toxicity concentration (CC50), HEK293T/ACE2 cells, text b80): > 100 µM; selectivity coefficient (CC50/EC50) [2]: > 833; EC50 [2]: 120 nM; CC50 (VeroE6/TMPRSS2 cells; Table 5, VeroE6/TMPRSS2 (CPE)): > 100 µM; CC50 (VeroE6/TMPRSS2 cells; [9]): > 100 µM; EC50 (SARS-CoV-2 [3]): 1700 nM
16 | CC1CC(C)CN(Cc2cc(Nc3ncnc4ccccc34)cc(Cl)c2O)C1 (stereo not drawn) [Compound 24] | > 100 | 2.1 | 
17 | CCN(Cc1cc(Nc2ncnc3ccccc23)cc(Cl)c1O)c1ccc(Cl)cc1 [Compound 28] | > 100 | 10 | 
18 | CCN(Cc1cc(Nc2ncnc3ccccc23)cc(Cl)c1O)C1CCCCC1 [Compound 19] | > 100 |  | EC50 (SARS-CoV-2 [1]; [12]): 2900 nM; CC50 at 3 days (in vitro [5]): 36.1 µM; EC50 (SARS-CoV-2 (WK-521); Severe acute respiratory syndrome coronavirus 2, Table 5, VeroE6/TMPRSS2 (CPE), read-out: EC50): 3.2 µM; CC50 (VeroE6/TMPRSS2 cells; African green monkey, 3 days): > 100 µM; EC50 (SARS-CoV-2 [3]; [12]): 2900 nM; EC50 [6]: 140 nM
19 | CCCN(CCC)Cc1cc(Nc2ncnc3ccccc23)cc(Cl)c1O [Compound 23] | > 100 | 15.3 | 
20 | CC(C)(C)[C@H](NC(=O)C(F)(F)F)C(=O)N1C[C@H]2[C@@H]([C@H]1C(=O)N[C@H](C#N)C[C@@H]1CCNC1=O)C2(C)C [Nirmatrelvir, reference compound] |  |  | CC50 (in vitro [4]): > 100 µM; EC50 (SARS-CoV-2 (WK-521); Severe acute respiratory syndrome coronavirus 2, VeroE6/TMPRSS2, 72 h, read-out: EC50 (50% effective concentration, inhibits cell death induced by SARS-CoV-2 infection by 50%)): 8.3 µM
21 | CCN(Cc1cc(Nc2ncnc3ccccc23)ccc1O)c1ccc(Cl)cc1 [Compound 26] | > 100 | 11.7 | 
22 | CCN(CC)Cc1cc(Nc2ncnc3ccccc23)cc(Br)c1O [Compound 3] | > 100 | 23.9 | 
23 | C[C@@H]1CN(Cc2cc(Nc3ncnc4ccccc34)cc(Cl)c2O)[C@@H](C)CN1C (racemic) [Compound 33] | > 100 | 54.7 | 
24 | CN(Cc1ccccc1)Cc1cc(Nc2ncnc3ccccc23)cc(I)c1O [Compound 9] |  |  | EC50 (SARS-CoV-2 (WK-521); [10]): 8 µM; CC50 (VeroE6/TMPRSS2 cells; [9]): 38.1 µM
25 | CC(C)N(Cc1ccncc1)Cc1cc(Nc2ncnc3ccccc23)cc(Cl)c1O [Compound 29] | > 100 | 10.6 | 
26 | CCN(CC)Cc1cc(Nc2nc(N(C)C)nc3ccccc23)cc(Cl)c1O [Compound 7] | 49.2 | 7.2 | 
27 | CCN(Cc1cc(Nc2ncnc3ccccc23)cc(Cl)c1O)CC(C)(C)C [Compound 32] | 60.2 | 20 | 
28 | CC(C)N(Cc1cc(Nc2ncnc3cc(F)ccc23)cc(Cl)c1O)C(C)C [Compound 25] | > 100 | 2.5 | 
29 | CCN(Cc1cc(Nc2ncnc3ccccc23)cc(Cl)c1O)C(C)(C)C [Compound 20] | > 100 | 3.9 | 
